Earlier results on five substances are cited in US12527811B2, “Defibrotide for the prevention and treatment of cytokine release syndrome and neurotoxicity associated with immunodepletion” (priority 2018, dated 2026).

As usually defined, the Kd is the equilibrium constant for the complex coming apart.

The conditions of data set [1]: JULIET, ninety-three adult patients with relapsed or refractory DLBLC; cited from earlier work.
The next data set concerns the target T1, IL-6R (Homo sapiens, UniProt P08887).
T1 sequence (P08887 20-468): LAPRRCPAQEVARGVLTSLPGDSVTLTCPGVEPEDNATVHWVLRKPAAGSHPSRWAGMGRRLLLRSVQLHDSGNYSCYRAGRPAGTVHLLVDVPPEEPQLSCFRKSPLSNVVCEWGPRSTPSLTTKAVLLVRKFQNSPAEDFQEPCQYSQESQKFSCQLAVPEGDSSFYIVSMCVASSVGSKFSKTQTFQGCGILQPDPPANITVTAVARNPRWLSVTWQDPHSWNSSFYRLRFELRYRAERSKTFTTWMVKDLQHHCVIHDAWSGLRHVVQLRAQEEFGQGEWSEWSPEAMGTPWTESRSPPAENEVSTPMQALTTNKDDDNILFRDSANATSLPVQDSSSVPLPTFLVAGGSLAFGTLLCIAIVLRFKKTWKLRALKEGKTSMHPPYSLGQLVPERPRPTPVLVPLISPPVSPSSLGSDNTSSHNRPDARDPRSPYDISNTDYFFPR
Conditions: read-out: affinity (Kd) for IL-6R; cited from earlier work.

For data set [2] the following is noted: ZUMA-1, one hundred and one adult patients with refractory aggressive B-cell NHL; cited from earlier work.
A further data set addresses IL-6 (Homo sapiens, UniProt P05231). The following applies: cited from earlier work.
For data set [3] the following is noted: in vivo; cited from earlier work.

Where two headings read alike, the source gives them in different places.

IL-6, sequence (P05231 30-212): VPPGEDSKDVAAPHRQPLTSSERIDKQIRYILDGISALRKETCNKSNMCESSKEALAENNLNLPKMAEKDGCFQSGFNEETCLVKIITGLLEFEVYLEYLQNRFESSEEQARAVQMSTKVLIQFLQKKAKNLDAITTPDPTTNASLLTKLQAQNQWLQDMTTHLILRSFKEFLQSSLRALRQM

As for tisagenlecleucel, in data set [1], the “rate of grade>3 CRES” value is listed as 12% and the “rate of grade>3 CRS” value was 22%.

In the case of IL-6: cytokine that binds IL-6R, the Kd with IL-6R was approximately 1 nM.

Regarding tocilizumab [reference compound], in the data set with IL-6R, the Kd was 2.54 nM.

Take Axicabtagene ciloleucel [Axi-cel]: in data set [2], the “rate of grade>3 CRES” value was 28% and the “rate of grade>3 CRS” value is reported as 13%.

For siltuximab, the Kd in the data set with IL-6 was approximately 0.001 nM. Also, the “effect on CRS symptoms” value in data set [3] was “rapid reversal of CRS symptoms in most patients”.
